Measured values published in publication PMC6709486, “Safety, Tolerability, Pharmacokinetics, and Drug Interaction Potential of SPR741, an Intravenous Potentiator, after Single and Multiple Ascending Doses and When Combined with β-Lactam Antibiotics in Healthy Subjects” (Antimicrobial Agents and Chemotherapy, 2019).
Peptide text beside a SMILES is read from it.

How the values were obtained:
[1] = parameters: species or system human; conditions: in vivo
Procedure: In the SAD phase, healthy volunteers were screened within 28 days prior to dosing. Subjects were admitted to the clinical facility on day −1 for up to 3 days. A single dose of SPR741 (or placebo) was administered on day 1. Following completion of all safety assessments and sampling for PK analyses, subjects were discharged on day 2. A follow-up visit occurred 5 to 7 days after day 1 dosing. In the MAD phase, all subjects were admitted to the clinical facility on day −1. Dosing commenced on the morning of day 1. Three doses were administered daily at approximately 8 (±0.5)-h intervals for a total of 14 consecutive days. The last dose was administered on the morning of day 14. Blood and urine samples were collected for assessment of PK parameters. Subjects were discharged on day 16 following completion of all PK sample collection and safety assessments, and a follow-up visit occurred 5 to 7 days after the last dose.

[2] = parameters: species or system human; conditions: in vivo; remark: listed apart in the source
Description: The SAD/MAD study was a phase 1, double-blind, placebo-controlled, multicohort trial. Part 1 used a SAD design according to which subjects received a single i.v. dose of SPR741. Part 2 used a MAD design in which subjects received multiple daily i.v. doses of SPR741 over a period of 14 days. The objective was to assess the safety/tolerability and PK of single and multiple ascending doses of SPR741. In the SAD phase, healthy volunteers were screened within 28 days prior to dosing. Subjects were admitted to the clinical facility on day −1 for up to 3 days. A single dose of SPR741 (or placebo) was administered on day 1. Following completion of all safety assessments and sampling for PK analyses, subjects were discharged on day 2. A follow-up visit occurred 5 to 7 days after day 1 dosing. In the MAD phase, all subjects were admitted to the clinical facility on day −1. Dosing commenced on the morning of day 1. Three doses were administered daily at approximately 8 (±0.5)-h intervals for a total of 14 consecutive days. The last dose was administered on the morning of day 14. Blood and urine samples were collected for assessment of PK parameters. Subjects were discharged on day 16 following completion of all PK sample collection and safety assessments, and a follow-up visit occurred 5 to 7 days after the last dose. In the SAD phase, subjects were randomized to one of eight cohorts that received doses of 5, 15, 50, 100, 200, 400, 600 or 800 mg of SPR741. Within each cohort, two subjects received placebo, and six received SPR741. In cohort 1, two subjects (sentinels) were dosed with SPR741 or placebo 48 h prior to dosing of the remaining subjects. The remaining six subjects were dosed only after no safety concerns were identified in the sentinel subjects. After each dose cohort had completed administration of study drug and evaluation, a Safety Monitoring Group reviewed blinded cumulative safety data (including day 5 to day 7 follow-up data) to confirm the safety and tolerability of SPR741. For both studies, safety assessments included clinical laboratory testing (hematology, coagulation, serum chemistry, renal chemistry, and urinalysis), vital signs (blood pressure, heart rate, body temperature, and respiratory rate), physical examination, and triplicate 12-lead ECGs. […] Adverse events were recorded at each study visit.

CC(=O)N[C@H](C(=O)N[C@H](CO)C(=O)N[C@H]1CCNC(=O)[C@H]([C@@H](C)O)NC(=O)[C@H](CCN)NC(=O)[C@H](CCN)NC(=O)[C@H](CC(C)C)NC(=O)[C@@H](Cc2ccccc2)NC(=O)[C@H](CCN)NC1=O)[C@@H](C)O [SPR741] (HELM PEPTIDE1{[ac].T.[dS].[Dab].[Dab].[dF].L.[Dab].[Dab].T}$PEPTIDE1,PEPTIDE1,4:R3-10:R2$$$V2.0)
fraction of the dose excreted from 0 to 24 h postdose on day 14 [1]: 139.1% | TEAE classified as a renal or urinary disorder [2]: No subjects | abnormal serum creatinine value [2]: no subject | headache: No. (%) of subjects [2]: 4 (8%) | severe TEAE or serious adverse event [2]: No subject
